Values quoted from earlier work as cited in patent US20250313903A1, “NEOANTIGEN IMMUNOTHERAPY” (Gradalis, Inc., priority 2023, published 2025).
Where two headings read alike, the source gives them in different places.

Legend:
[1] = test system: previously treated, PD-L1 positive, advanced NSCLC; details: in vivo
[2] = test system: lymph-node positive or metastatic melanoma after complete resection; details: adjuvant
[3] = test system: untreated unresectable/metastatic melanoma; details: combination vs. ipilimumab alone
[4] = test system: unresectable or metastatic, untreated melanoma; details: for 24-months OS / 24-months PFS: PD-L1 ≥1%; for 1-year OS / PFS (1-year PFS in Table 3): in vivo
[5] = test system: unresectable, previously treated, late-stage melanoma; details: 3 mg/kg every 3 weeks, alone or with gp100
[6] = test system: chemo-refractory, metastatic Merkel cell carcinoma
[7] = test system: stage III-IV ovarian cancer
[8] = test system: advanced urothelial carcinoma, 2nd line setting; details: in vivo
[9] = test system: advanced renal cell carcinoma; details: Avelumab + Axitinib vs. sunitinib
[10] = test system: unresectable/metastatic urothelial cancer, cisplatin-ineligible; details: 1st line, CPS ≥10
[11] = test system: MSI-H, dMMR or TMB-H solid tumors
[12] = test system: refractory/relapse primary mediastinal large B-cell lymphoma; details: in vivo
[13] = test system: recurrent or metastatic head and neck squamous cell cancer; details: first-line; monotherapy for CPS ≥1% or with chemotherapy
[14] = test system: refractory classical Hodgkin's lymphoma; details: in vivo
[15] = test system: persistent/recurrent or metastatic cervical cancer with PD-L1 CPS ≥1; details: pembrolizumab vs. placebo + paclitaxel/platinum +/- bevacizumab
[16] = test system: advanced non-colorectal dMMR tumors; details: in vivo
[17] = test system: untreated, PD-L1 ≥50 advanced NSCLC; details: vs. chemotherapy
[18] = test system: untreated, non-squamous NSCLC without sensitizing mutations; details: pembrolizumab plus chemotherapy vs. chemotherapy
[19] = test system: unresectable/metastatic urothelial cancer; 2nd line; details: for median OS: vs. chemotherapy
NSCLC = details: irrespective of PD-L1 status
[20] = test system: primary advanced or recurrent dMMR or MSI-H endometrial cancer; details: dostarlimab-gxly vs. placebo + carboplatin-paclitaxel
[21] = in vivo
[22] = test system: newly diagnosed stage III/IV ovarian cancer
[23] = test system: triple-negative breast cancer; details: PD-L1 (TPS) ≥1% cut-off
[24] = test system: extensive stage SCLC, 1st line setting; details: atezolizumab added to carboplatin and etoposide, vs. placebo
[25] = test system: metastatic NSCLC, 2nd line post platinum-based chemotherapy; details: regardless of PD-L1 expression or histology
[26] = test system: recurrent or metastatic cervical cancer after platinum-based chemotherapy; details: vs. investigator-choice chemotherapy
[27] = test system: locally advanced, metastatic squamous cell carcinoma
[28] = test system: advanced renal cell cancer; details: in vivo
[29] = test system: persistent/recurrent cervical cancer; details: in vivo
[30] = test system: non-small cell lung cancer (NSCLC); details: progressed after platinum-doublet chemotherapy
MSI-H/dMMR tumors = details: in vivo
[31] = test system: persistent/recurrent cervical cancer; details: in vivo; remark: listed apart in the source
[32] = test system: small-cell lung cancer (SCLC)
[33] = test system: advanced metastatic non-small cell lung cancer (NSCLC); details: one patient, EGFR exon 19 deletion; ongoing greater than 1 year
metastatic melanoma = details: previously untreated, wild-type BRAF (CheckMate-067 and CheckMate-069)
[34] = test system: metastatic melanoma progressed after anti-CTLA-4 therapy; details: in vivo
[35] = test system: relapsed/refractory metastatic squamous cell cancer of head and neck; details: second-line
[36] = test system: Stage IIIb/IV newly diagnosed ovarian cancer; details: follow up at 74 months
[37] = test system: advanced/metastatic urothelial carcinoma, platinum-refractory
[38] = test system: newly diagnosed advanced high-grade ovarian cancer

CC(=O)O[C@@]12CO[C@@H]1C[C@H](O)[C@@]1(C)C(=O)[C@H](O)C3=C(C)[C@@H](OC(=O)[C@H](O)[C@@H](NC(=O)OC(C)(C)C)c4ccccc4)C[C@@](O)([C@@H](OC(=O)c4ccccc4)[C@H]21)C3(C)C [docetaxel]
OS [1]: 8.5 months

ipilimumab: FDA approved CTLA-4 inhibitor
12-month RFS [2]: 60.8% | median PFS [3]: 4.4 months | 24-months OS [4]: 45% | 24-months PFS [4]: 13% | 1-year OS [4]: 58.2% | PFS (1-year PFS in Table 3) [4]: 26.5% | 1-year OS ([4]; listed as Ipilimumab): (vs. 58.2%; | PFS (1-year PFS in Table 3) ([4]; listed as Ipilimumab): 26.5%; p < 0.001); | OS vs. gp100 alone (in words) [5]: OS advantage

Avelumab: PD-L1 blocking antibody
CR, patients ([6]; in vivo): 8/88 | ORR, responders/patients ([6]; in vivo): 28/88 | ORR ([6]; regardless of PD-L1): ORR: 31.8% | PFS HR vs. chemotherapy alone ([7]; avelumab in combination with chemotherapy): 1.14 | median PFS ([7]; avelumab only group): 16.8 months | median PFS ([7]; combination with chemotherapy): 18.1 months | PFS HR vs. chemotherapy alone ([7]; single agent avelumab maintenance): 1.43 | 24-month OS [8]: OS: 20.1% | CR [8]: 4.1% | ORR [8]: ORR: 16.5%; CR: | PR [8]: 12.4% | median DoR [8]: Median DoR: 20.5 months | median OS [8]: Median OS: 7.0 months | median PFS [8]: Median PFS: 1.6 months | ORR ([9]; PD-L1+): 55.2% | median PFS ([9]; PD-L1+): 13.8 months | median PFS ([9]; overall population): median PFS: 13.8

Pembrolizumab: fully humanized IgG4 antibody targeting PD-1
ORR [10]: ORR: 38% | ORR ([10]; listed as pembrolizumab): 38% | ORR, responders/patients ([11]; 90 patients with advanced endometrial cancer): 43/90 | ORR, responders/patients ([11]; 98 patients with advanced cervical cancer): 12/98 | ORR ([11]; MSI-H or dMMR solid tumors): studies: ORRs ~40% | ORR ([11]; MSI-H or dMMR solid tumors, listed as pembrolizumab): ~40% | ORR ([11]; TMB-H patients (Keynote-158)): 29% | ORR ([11]; TMB-low patients (Keynote-158)): 6% | complete response rate [12]: 13% | response rate [12]: 45% | OS [1]: 10.4 months | OS [13]: 12.3 months | complete response [14]: 22% | median duration of response [14]: 11 months | response rate [14]: 69% | responding tumors (metastatic NSCLC; PD-L1 negative tumors): 15% | response rate (metastatic NSCLC; PD-L1 positivity): 45% | median DOR [15]: 18 vs. 10.4 months | median PFS [15]: Median PFS: 10.4 months | ORR across tumor types [16]: 34% | complete response, patients [16]: 10% | 6-months OS [17]: 80.2% vs. 72.4%; | ORR [17]: ORR: 44.8% vs. 27.8% | median PFS [17]: Median PFS: 10.3 months | 6-months OS ([17]; listed as pembrolizumab): 80.2% | ORR ([17]; listed as pembrolizumab): 44.8% | median PFS ([17]; listed as pembrolizumab): 10.3 months | PFS HR [18]: (HR: 0.53; p = 0.0049) | median PFS [18]: Median PFS: 19.0 months | median PFS ([18]; listed as pembrolizumab): 19 months | OS benefit compared to chemotherapy ([19]; in vivo): 3 months | median OS [19]: Median OS: 10.3 months | median OS ([19]; listed as pembrolizumab): 10.3 months | 24-months OS [4]: 58% | 24-months PFS [4]: 33% | response rate, PFS and OS vs. chemotherapy (in words) (NSCLC): consistent response rate, PFS and OS advantage

Dostarlimab-gxly: anti-PD-1 checkpoint inhibitor
median PFS [20]: Median PFS: 30.3 months

bevacizumab: VEGF inhibitor
survival (ovarian cancer; BRCA-m and HRD pattern disease): 62.6 months | survival (ovarian cancer; patients with HRP tumors): 43.4 months | patients developing Grade 3/4 product related adverse events [21]: over 65%

Atezolizumab: PD-L1 blocking antibody
PFS HR vs. placebo arm ([22]; HRP subgroup): 0.82 | PFS ([22]; PD-L1+ patients): 20.8 months | PFS HR vs. placebo arm ([22]; PD-L1+ patients): 0.80 | median PFS ([22]; atezolizumab with carboplatin plus paclitaxel and bevacizumab): 19.5 months | PFS HR vs. placebo arm ([22]; with carboplatin plus paclitaxel and bevacizumab): 0.92 | OS (in words) [23]: OS benefit | median OS [24]: Median OS: 12.3 months | median PFS [24]: Median PFS: 5.2 months | median OS ([24]; listed as atezolizumab): 12.3 months | median PFS ([24]; listed as atezolizumab): 5.2 months | OS (in words) [25]: OS benefit

Cemiplimab
ORR [26]: ORR: 16.4% vs. 6.3% | median OS [26]: Median OS: 12.0 months | median PFS: HR [26]: 0.75, p < 0.001 | ORR ([27]; Phase 1 expansion cohorts): 50% | response rates ([27]; Phase 2 metastatic-disease cohort): 47

Nivolumab: fully humanized IgG4 antibody targeting PD-1
12-month RFS [2]: 70.5% | OS [28]: 25.0 months | 6-months OS [29]: 6-months OS: 78% | 6-months PFS [29]: 6-months PFS: 16%; | median duration of SD [29]: SD: 5.7 months | ORR [30]: 19-20% | median OS [30]: 9.2-12.2 months | median PFS [30]: 2.3-3.5 months | ORR (MSI-H/dMMR tumors): 31% | ORR [31]: ORR: 26.3% | median OS [31]: Median OS: 21.9 months | 24-months OS rate ([32]; in vivo): 17.9% | median OS ([32]; in vivo): 4.7 months | response rate ([32]; progressed on platinum and at least one other line): 11.6% | response (in words) [33]: durable partial response | response rate (metastatic melanoma): 40% | response rate [34]: 32% | OS [35]: 7.5 months

NC(=O)c1cccc2cn(-c3ccc([C@@H]4CCCNC4)cc3)nc12 [niraparib]
OS HR ([36]; HRP): 0.93 | OS HR ([36]; overall): 1.01

Durvalumab: PD-L1 blocking antibody
ORR ([37]; PD-L1 negative): 0% (PD-L1 negative) | ORR ([37]; PD-L1 negative, listed as durvalumab): none | ORR ([37]; PD-L1 positive): patients), 46.4% | ORR ([37]; PD-L1 positive, listed as durvalumab): 46.4% | ORR ([37]; all patients): ORR: 31% (all | ORR ([37]; all patients, listed as durvalumab): 31%

CO[C@H]1C[C@@H]2CC[C@@H](C)[C@@](O)(O2)C(=O)C(=O)N2CCCC[C@H]2C(=O)O[C@H]([C@H](C)C[C@@H]2CC[C@@H](OCCO)[C@H](OC)C2)CC(=O)[C@H](C)/C=C(\C)[C@@H](O)[C@@H](OC)C(=O)[C@H](C)C[C@H](C)/C=C/C=C/C=C/1C [everolimus]
OS [28]: 19.6 months

CNCc1ccc(-c2[nH]c3cc(F)cc4c3c2CCNC4=O)cc1 [rucaparib]
PFS ([38]; BRCA-wt/LOH low patients): 12.1 months | PFS ([38]; in vivo): 20.2 months
